Like-named read-outs stand apart in the source and are kept apart here.

Data set [1] has as its target T1, PLpro from SARS-CoV-2 (Severe acute respiratory syndrome coronavirus 2, UniProt P0DTD1). The experiment in a line: biochemical. Type of data set: biochemical. Conditions: for remaining activity at 0.06 µM: inhibitor 0.06 uM; for IC50: after 30-min incubation.
Data set [2] addresses T1, PLpro from SARS-CoV-2. The data set is described as follows: biochemical. On the set-up: mean (kobs plot, Supplementary Figure 6 II): unit: min^-1. Type of data set: biochemical.
The target of another data set is PLpro (Severe acute respiratory syndrome coronavirus 2, UniProt P0DTD1). The experiment in a line: Intact protein ESI-MS to assess covalent adduct formation. Format: binding, SARS-CoV-2. Details: unit not given here.
In data set [3] the test system is SARS-CoV-2 isolate USA-WA1/2020. Conditions: read-out: cytopathic effect, % cell viability, duplicate wells. (In general: Protection from cytopathic effect is a common read-out in antiviral testing.)
The test system of the next data set is Vero E6 cells. The following applies: African green monkey, 48 h.
A short description of a further data set: in vitro. Conditions: African green monkey, cytotoxicity, %cell viability.
For data set [4], the system named is SARS-CoV-2 isolate USA-WA1/2020. The data set is described as follows: microbe, parasite or virus in culture. The following applies: duplicate wells; for inhibition at 2.08 µM: Severe acute respiratory syndrome coronavirus 2, Vero C1008, read-out: cytopathic effect, % cell viability, [inhibitor] 2.08 uM.
A short description of data set [5]: Metabolic stability in rat liver microsomes. Conditions: Sprague-Dawley. (In general: Liver microsomes are vesicles of endoplasmic reticulum, rich in cytochrome P450 enzymes.)
The nature of data set [6]: Metabolic stability in rat liver S9 fraction. Conditions: Sprague-Dawley.
Data set [7] is described as follows: Metabolic stability in mouse liver microsomes. Conditions: CD-1, mouse.
A short description of data set [8]: Metabolic stability in mouse liver S9 fraction. The following applies: CD-1, mouse.

For orientation: IC50 means the concentration that gives 50% inhibition. What is called kinact/KI is the maximal inactivation rate divided by the concentration that gives half of it. The viability is a per cent measure of how many cells are alive, often set against a control. On to `COC(=O)/C=C/C(=O)NNC(=O)CCc1ccc(NC(C)=O)cc1C(=O)N[C@H](C)c1cccc2ccccc12` [Compound 8, methyl-(R,E)-4-(2-(3-(4-acetamido-2-((1-(naphthalen-1-yl)ethyl)carbamoyl)phenyl)propanoyl)hydrazineyl)-4-oxobut-2-enoate], for which the remaining activity at 0.06 µM at PLpro from SARS-CoV-2 [1] (0.5 h) came to 89.5%. Also, the remaining activity at 0.2 µM was 57.8% on PLpro from SARS-CoV-2 [1] (0.5 h, inhibitor 0.20 uM) and 12.6% on PLpro from SARS-CoV-2 [2] (1 h, read-out: PLpro activity after preincubation, inhibitor 0.2 uM, preincubation 60 min). The compound also registered an IC50 against PLpro from SARS-CoV-2 [1] of 0.23 µM. For the same compound, the kinact/KI on PLpro from SARS-CoV-2 [2] was determined as 9000 M⁻¹ s⁻¹. Also, the remaining activity at 0.1 µM came out at 79.5% at PLpro from SARS-CoV-2 [2] (5 min, read-out: PLpro activity after preincubation, inhibitor 0.1 uM, preincubation 5 min); 71.5% at PLpro from SARS-CoV-2 [2] (10 min, read-out: PLpro activity after preincubation, inhibitor 0.1 uM, preincubation 10 min); 66.2% on PLpro from SARS-CoV-2 [2] (0.5 h, read-out: PLpro activity after preincubation, inhibitor 0.1 uM, preincubation 30 min); 64.4% at PLpro from SARS-CoV-2 [2] (1 h, read-out: PLpro activity after preincubation, inhibitor 0.1 uM, preincubation 60 min); 66.3% at PLpro from SARS-CoV-2 [2] ([…], read-out: PLpro activity after preincubation, inhibitor 0.1 uM, preincubation 15 min); 72.5% at PLpro from SARS-CoV-2 [2] ([…], read-out: PLpro activity after preincubation, inhibitor 0.1 uM, preincubation 45 min). Also, at PLpro from SARS-CoV-2 [2] ([…], read-out: PLpro activity after preincubation, inhibitor 0.1 uM, preincubation 90 min), the remaining activity at 0.1 µM was determined as 44.6%. Further, the “Time dep. (time-dependent inhibition)” value at PLpro from SARS-CoV-2 [2] (fluorogenic peptide assay, varied preincubation time) is “Yes”. The “mean (kobs plot, Supplementary Figure 6 II)” value on PLpro from SARS-CoV-2 [2] (inhibitor 0.10 uM) amounted to 0.0091; on PLpro from SARS-CoV-2 [2] (inhibitor 0.20 uM) it was 0.0652. Further, the Measured adduct mass at PLpro is given as 531. The inhibition in data set [3] ([inhibitor] 2.08 uM, 2.08 µM) came out at 0.9%; in data set [3] ([inhibitor] 8.33 uM, 8.33 µM), 2.82%. In addition, the “cytotoxicity, %cell viability” value in the data set with Vero E6 cells (2.08 µM) came to 78.830%; in the data set with Vero E6 cells (8.33 µM) it was 82.620%; in the data set with Vero E6 cells (16.67 µM), 76.260%; in the data set on Vero E6 cells (33.33 µM), 75.370%. In the data set “in vitro”, this compound displayed a viability at 48 h, 2.08 µM of 83.7%. This compound came in with a viability at 48 h, 8.33 µM in “in vitro” of 87.2%. Further, the viability at 48 h, 16.67 µM in “in vitro” amounted to 82.6%. In “in vitro”, this compound showed a viability at 48 h, 33.33 µM of 75.6%. In addition, the inhibition at 2.08 µM in data set [4] stood at 1.22%. Moreover, in data set [4] (Severe acute respiratory syndrome coronavirus 2, Vero C1008, read-out: cytopathic effect, % cell viability, [inhibitor] 8.33 uM), the inhibition at 8.33 µM was 4.63%.
On to `CC(=O)Nc1ccc(CCC(=O)NNC(=O)CCl)c(C(=O)N[C@H](C)c2cccc3ccccc23)c1` [Compound 10, (R)-5-acetamido-2-(3-(2-(2-chloroacetyl)hydrazineyl)-3-oxopropyl)-N-(1-(naphthalen-1-yl)ethyl)benzamide], for which the remaining activity at 0.02 µM at PLpro from SARS-CoV-2 [1] (0.5 h, inhibitor 0.02 uM) was found to be 90.3%. Also, at PLpro from SARS-CoV-2 [1] (0.5 h), the remaining activity at 0.06 µM turned out to be 102%. Besides, the remaining activity at 2.01 µM at PLpro from SARS-CoV-2 [1] (0.5 h, inhibitor 2.01 uM) was found to be 80.3%. Moreover, the remaining activity at 6.34 µM at PLpro from SARS-CoV-2 [1] (0.5 h, inhibitor 6.34 uM) was 37.2%. Moreover, the IC50 on PLpro from SARS-CoV-2 [1] is 4.4 µM. For the same compound, the Measured adduct mass at PLpro worked out at 460. Moreover, in [3] ([inhibitor] 2.08 uM, 2.08 µM), the inhibition is 1.32%. The “cytotoxicity, %cell viability” value in the data set with Vero E6 cells (2.08 µM) is 80.200%. In the data set with Vero E6 cells (8.33 µM), the “cytotoxicity, %cell viability” value is given as 79.780%. Also, the “cytotoxicity, %cell viability” value in the data set on Vero E6 cells (16.67 µM) is listed as 73.170%. Further, the “cytotoxicity, %cell viability” value in the data set on Vero E6 cells (33.33 µM) is given as 66.030%. For the same compound, in “in vitro”, the viability at 48 h, 2.08 µM was 92.2%; the viability at 48 h, 8.33 µM is 84.4%; the viability at 48 h, 16.67 µM is 81.5%; the viability at 48 h, 33.33 µM worked out at 73.4%. Further, the inhibition at 2.08 µM in data set [4] was 2.2%.
A word on the half-life: it is how long it takes for the measured level to halve. On to `CC(C)NCC(O)COc1cccc2ccccc12` (stereo not drawn) [propranolol, reference compound], for which the half-life was 3 min in data set [5], 3 min in data set [6], 20 min in data set [7] and 6 min in [8].

(Values after publication PMC10044120, “Potent and selective covalent inhibition of the papain-like protease from SARS-CoV-2” (Nature Communications, 2023).)
